Source: patent US4578489A (priority 1982, dated 1986)
Like-named read-outs stand apart in the source and are kept apart here.

Columns and labels:
Pseudomonas aeruginosa = assay: Minimum inhibitory concentration against bacteria, strain B; assay type: cell-based; conditions: 24 hours at 30° C.; tested at 100 and 300 mg/liter
In short: (§1)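 Overnight broth cultures were diluted 1/1000 in saline, then again 1/1000 into Caso peptone broth. Test compounds were added at 100 and 300 mg/liter, and samples were incubated 24 hours at 30° C. with shaking before turbidity was scored.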

Artemia salina = assay: Action against Artemia salina nauplii; assay type: in vivo; design: key: 0: no change; 1: slight change; 1-2: animals are attacked; 2: animals are strongly attacked; 2-3: animals are nearly all dead; 3: animals are all dead
Experimental: The eggs, which are available commercially, are caused to hatch by vigorous aeration. When 2-3 days old, the nauplii are exposed to the products at various concentrations (concentrations tested: 2.5; 1; 0.5 and 0.25 mg/liter) in synthetic seawater, and are observed over a prolonged period of time.

[1] = system: Alcaligenes denitrificans; assay: Minimum inhibitory concentration against bacteria, strain E; assay type: cell-based; conditions: 24 hours at 30° C.; tested at 100 and 300 mg/liter
In short: as §1

Enterobacter aerogenes = assay: Minimum inhibitory concentration against bacteria, strain C; assay type: cell-based; conditions: 24 hours at 30° C.; tested at 100 and 300 mg/liter
In short: as §1

[2] = system: Enteromorpha intestinalis; assay: Action against Enteromorpha intestinalis: destruction (minimum killing concentration); assay type: in vivo; conditions: 4 hours in seawater, then 6-8 weeks in fresh seawater
Experimental: (§2) The action against the green alga Enteromorpha, which is the most important in seawter fouling, is investigated in sterile-filtered seawater containing an Erd-Schreiber solution. This solution is composed of a nutrient extract, phosphate and nitrate. The incubation of Enteromorpha intestinalis is carried out in a light thermostat at 18° C. under an alternation of 14 hours of light and 10 hours of darkness.
The algae which have been cultured in this way are exposed to the products under investigation for a short time (4 hours) in seawater. The minimum killing concentration (MKC) is determined by taking the algae out of the seawater containing a specific quantity of algicide, after the treatment time in the latter, washing the algae and investigating growth or mortality after incubation in fresh seawater for a further period of 6-8 weeks.
The minimum killing concentration (MKC) indicates the amount of substance required to cause such damage to the algae within a specific time that they can no longer recover in fresh seawater and die out.

Aureobasidium pullulans [3] = assay: Minimum inhibitory concentration against fungi, agar incorporation test, strain R; assay type: cell-based; conditions: malt extract/agar
In short: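 Compounds incorporated in malt extract agar at final 2, 5, 10, 50 and 100 mg/liter. Agar inoculated dropwise with traces of fungus. Value is the concentration (mg/liter) needed to inhibit growth.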

[4] = system: Enteromorpha intestinalis; assay: Action against Enteromorpha intestinalis: inhibitory concentration (MIC); assay type: in vivo; conditions: seawater containing biocide for entire test; concentration tested 0.5 mg/liter
Experimental: as §2
For determining the inhibitory concentration (MIC), the algae are kept in seawater containing biocide for the entire duration of the test (concentration tested: 0.5 mg/liter).

Aureobasidium pullulans [5] = assay: Growth on wood; design: key: 1: growth on the wood; 2: slight growth on the wood; 3: no growth on the wood; 4: no growth on the wood and an inhibitory zone; conditions: 28°, 4 weeks
Experimental: Small blocks of spruce wood, 7×10×10 mm in size, are dried in vacuo. The small blocks are then vacuum-impregnated by keeping them, in vacuo, in 100 ml of distilled water+biocide for 30 minutes and then subjecting them to a pressure treatment (2 atmospheres gauge by means of compressed air) for 18 hours in the water. The pieces of wood treated in this way are first subjected to leaching in running water and are then dried.
The dried pieces of wood are placed on potato/glucose agar and the wood, as well as the surrounding agar, is inoculated with 0.1 ml of a spore suspension of Aureobasidium pullulans. After incubation at 28° for 4 weeks, the growth is evaluated in accordance with the following rating: […]

Aspergillus phoenicis = assay: Minimum inhibitory concentration against fungi, agar incorporation test, strain L; assay type: cell-based; conditions: malt extract/agar
In short: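 Agar incorporation test in malt extract agar with compound at final 2, 5, 10, 50 and 100 mg/liter, inoculated dropwise with fungus; value is concentration (mg/liter) inhibiting growth.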

Candida albicans = assay: Minimum inhibitory concentration against fungi, agar incorporation test, strain P; assay type: cell-based; conditions: malt extract/agar
In short: (§3)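 First, compound is blended into malt extract agar (final 2, 5, 10, 50 or 100 mg/liter). Next, traces of fungus are applied dropwise. The MIC is then taken as the concentration needed to inhibit growth.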

Serratia marcencens = assay: Minimum inhibitory concentration against bacteria, strain D; assay type: cell-based; conditions: 24 hours at 30° C.; tested at 100 and 300 mg/liter
In short: as §1

Bacillus subtilis = assay: Minimum inhibitory concentration against bacteria, strain F; assay type: cell-based; conditions: 24 hours at 30° C.; tested at 100 and 300 mg/liter
In short: as §1

Endomyces geotrichum = assay: Minimum inhibitory concentration against fungi, agar incorporation test, strain Q; assay type: cell-based; conditions: malt extract/agar
In short: as §3

[6] = system: Cladosporium cladosporioides; assay: Minimum inhibitory concentration against fungi, agar incorporation test, strain O; assay type: cell-based; conditions: malt extract/agar
In short: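 Compounds incorporated into malt extract agar at final concentrations of 2, 5, 10, 50 and 100 mg/liter, with fungal traces added dropwise. Value is the concentration (mg/liter) required to inhibit fungal growth.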

[7] = system: mixed culture of bacteria; assay type: cell-based; design: key: +: growth, no destruction; (+): growth less than that of control (>10 colonies), slight destruction; (-): slight growth (1-10 colonies); -: no growth, destruction
Aspergillus niger = assay: Minimum inhibitory concentration against fungi, agar incorporation test, strain K; assay type: cell-based; conditions: malt extract/agar
In short: as §3

Chaetomium globosum = assay: Minimum inhibitory concentration against fungi, agar incorporation test, strain S; assay type: cell-based; conditions: malt extract/agar
In short: as §3

Proteus vulgaris = assay: Minimum inhibitory concentration against bacteria, strain A; assay type: cell-based; conditions: 24 hours at 30° C.; tested at 100 and 300 mg/liter
In short: as §1

Penicillium funiculosum = assay: Minimum inhibitory concentration against fungi, agar incorporation test, strain M; assay type: cell-based; conditions: malt extract/agar
In short: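 Compounds incorporated into malt extract agar at final 2, 5, 10, 50 and 100 mg/liter, then inoculated dropwise with fungus. Value is the concentration (mg/liter) inhibiting growth.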

Alternaria alternata = assay: Minimum inhibitory concentration against fungi, agar incorporation test, strain N; assay type: cell-based; conditions: malt extract/agar
In short: as §3

Chlorella vulgaris = assay: Action against algae: Chlorella vulgaris; assay type: cell-based; design: key: --: no growth on the agar, 3 ppm have destroyed the algae in 6 hours; conditions: 3 mg/liter; for Growth on the agar (algae-destroying action): 6 hours exposure, 14 days incubation; for Growth in the medium (growth inhibition): 14 days
In short: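 14-day cultures diluted 1/200 in nutrient medium received compound at 3 mg/liter final. After 6 h, samples were spotted on algae/agar for algicidal action; growth inhibition in medium and killing on agar assessed visually after 14 days under 14 h light/10 h dark.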

[8] = 5 mg/l, culture diluted 1/1000 in Tyrode
[9] = 5 mg/l, culture diluted 1/10000 in Tyrode
[10] = 10 mg/l, culture diluted 1/1000 in Tyrode
[11] = 10 mg/l, culture diluted 1/10000 in Tyrode
[12] = 30 mg/l, culture diluted 1/1000 in Tyrode
[13] = 30 mg/l, culture diluted 1/10000 in Tyrode
[14] = 60 mg/l, culture diluted 1/1000 in Tyrode
[15] = 60 mg/l, culture diluted 1/10000 in Tyrode
[16] = 100 mg/l, culture diluted 1/1000 in Tyrode
[17] = 100 mg/l, culture diluted 1/10000 in Tyrode

CCCCCCCCCCCC[n+]1ccccc1.CCC[CH2][Sn-]([Cl])([Cl])([CH2]CCC)[CH2]CCC [Example 6, Pyridine-Nlauryl / Tributyldichloro]
MIC against bacteria, strain B (Pseudomonas aeruginosa): 100 µg/mL
Action against Artemia salina (Artemia salina; 0,5 mg/l, 6 hours): 1-2
Action against Artemia salina (Artemia salina; 0,5 mg/l, 24 hours): 2-3
Action against Artemia salina (Artemia salina; 0,5 mg/l, 48 hours): 3
Action against Artemia salina (Artemia salina; 0,25 mg/l, 6 hours): 1
Action against Artemia salina (Artemia salina; 0,25 mg/l, 24 hours): 2
Action against Artemia salina (Artemia salina; 0,25 mg/l, 48 hours): 2-3
Action against Artemia salina (Artemia salina; 1 mg/l, 6 hours): 2
Action against Artemia salina (Artemia salina; 1 mg/l, 24 hours): 3
Action against Artemia salina (Artemia salina; 1 mg/l, 48 hours): 3
Action against Artemia salina (Artemia salina; 2,5 mg/l, 6 hours): 2-3
Action against Artemia salina (Artemia salina; 2,5 mg/l, 24 hours): 3
Action against Artemia salina (Artemia salina; 2,5 mg/l, 48 hours): 3
MIC against bacteria, strain E [1]: 100 µg/mL
MIC against bacteria, strain C (Enterobacter aerogenes): 100 µg/mL
Destruction, 5 mg/liter [2]: yes
MIC against fungi, strain R (Aureobasidium pullulans [3]): 2 µg/mL
MIC [4]: 0.5 µg/mL
growth on wood, leached for 5 days (Aureobasidium pullulans [5]; 0.01 % in H2 O): 4
growth on wood, not leached (Aureobasidium pullulans [5]; 0.01 % in H2 O): 4
growth on wood, leached for 5 days (Aureobasidium pullulans [5]; 0.05 % in H2 O): 4
growth on wood, not leached (Aureobasidium pullulans [5]; 0.05 % in H2 O): 4
MIC against fungi, strain L (Aspergillus phoenicis): 2 µg/mL
MIC against fungi, strain P (Candida albicans): 5 µg/mL
MIC against bacteria, strain D (Serratia marcencens): 100 µg/mL
MIC against bacteria, strain F (Bacillus subtilis): 100 µg/mL
MIC against fungi, strain Q (Endomyces geotrichum): 5 µg/mL
MIC against fungi, strain O [6]: 2 µg/mL
Growth (destruction of a mixed culture of bacteria) [7, 8]: +
Growth (destruction of a mixed culture of bacteria) [7, 9]: +
Growth (destruction of a mixed culture of bacteria) [7, 10]: +
Growth (destruction of a mixed culture of bacteria) [7, 11]: +
Growth (destruction of a mixed culture of bacteria) [7, 12]: +
Growth (destruction of a mixed culture of bacteria) [7, 13]: +
Growth (destruction of a mixed culture of bacteria) [7, 14]: +
Growth (destruction of a mixed culture of bacteria) [7, 15]: +
Growth (destruction of a mixed culture of bacteria) [7, 16]: +
Growth (destruction of a mixed culture of bacteria) [7, 17]: +
MIC against fungi, strain K (Aspergillus niger): 2 µg/mL
MIC against fungi, strain S (Chaetomium globosum): 2 µg/mL
MIC against bacteria, strain A (Proteus vulgaris): 100 µg/mL
MIC against fungi, strain M (Penicillium funiculosum): 5 µg/mL
MIC against fungi, strain N (Alternaria alternata): 2 µg/mL
Growth on the agar (algae-destroying action) (Chlorella vulgaris): --
Growth in the medium (growth inhibition) (Chlorella vulgaris): --

CCCCCCCCCCCCCC[N+](C)(C)Cc1ccccc1.CCC[CH2][Sn-]([Cl])([Cl])([CH2]CCC)[CH2]CCC [Example 2, dimethyl-benzyl-tetradecylammonium tributyldichlorostannate-(IV)]
MIC against bacteria, strain B (Pseudomonas aeruginosa): 100 µg/mL
Action against Artemia salina (Artemia salina; 0,5 mg/l, 6 hours): 1-2
Action against Artemia salina (Artemia salina; 0,5 mg/l, 24 hours): 2-3
Action against Artemia salina (Artemia salina; 0,5 mg/l, 48 hours): 3
Action against Artemia salina (Artemia salina; 0,25 mg/l, 6 hours): 0-1
Action against Artemia salina (Artemia salina; 0,25 mg/l, 24 hours): 2
Action against Artemia salina (Artemia salina; 0,25 mg/l, 48 hours): 2-3
Action against Artemia salina (Artemia salina; 1 mg/l, 6 hours): 2
Action against Artemia salina (Artemia salina; 1 mg/l, 24 hours): 3
Action against Artemia salina (Artemia salina; 1 mg/l, 48 hours): 3
Action against Artemia salina (Artemia salina; 2,5 mg/l, 6 hours): 2-3
Action against Artemia salina (Artemia salina; 2,5 mg/l, 24 hours): 3
Action against Artemia salina (Artemia salina; 2,5 mg/l, 48 hours): 3
MIC against bacteria, strain E [1]: 100 µg/mL
MIC against bacteria, strain C (Enterobacter aerogenes): 100 µg/mL
Destruction, 5 mg/liter [2]: yes
MIC against fungi, strain R (Aureobasidium pullulans [3]): 2 µg/mL
MIC [4]: 0.5 µg/mL
growth on wood, leached for 5 days (Aureobasidium pullulans [5]; 0.01 % in H2 O): 4
growth on wood, not leached (Aureobasidium pullulans [5]; 0.01 % in H2 O): 4
growth on wood, leached for 5 days (Aureobasidium pullulans [5]; 0.05 % in H2 O): 4
growth on wood, not leached (Aureobasidium pullulans [5]; 0.05 % in H2 O): 4
MIC against fungi, strain L (Aspergillus phoenicis): 2 µg/mL
MIC against fungi, strain P (Candida albicans): 5 µg/mL
MIC against bacteria, strain D (Serratia marcencens): 100 µg/mL
MIC against bacteria, strain F (Bacillus subtilis): 100 µg/mL
MIC against fungi, strain Q (Endomyces geotrichum): 5 µg/mL
MIC against fungi, strain O [6]: 2 µg/mL
Growth (destruction of a mixed culture of bacteria) [7, 8]: +
Growth (destruction of a mixed culture of bacteria) [7, 9]: +
Growth (destruction of a mixed culture of bacteria) [7, 10]: +
Growth (destruction of a mixed culture of bacteria) [7, 11]: +
Growth (destruction of a mixed culture of bacteria) [7, 12]: (+) (growth less than that of control (>10 colonies), slight destruction)
Growth (destruction of a mixed culture of bacteria) [7, 13]: -
Growth (destruction of a mixed culture of bacteria) [7, 14]: (+) (growth less than that of control (>10 colonies), slight destruction)
Growth (destruction of a mixed culture of bacteria) [7, 15]: -
Growth (destruction of a mixed culture of bacteria) [7, 16]: (-) (slight growth (1-10 colonies))
Growth (destruction of a mixed culture of bacteria) [7, 17]: -
MIC against fungi, strain K (Aspergillus niger): 2 µg/mL
MIC against fungi, strain S (Chaetomium globosum): 2 µg/mL
MIC against bacteria, strain A (Proteus vulgaris): 100 µg/mL
MIC against fungi, strain M (Penicillium funiculosum): 2 µg/mL
MIC against fungi, strain N (Alternaria alternata): 2 µg/mL
Growth on the agar (algae-destroying action) (Chlorella vulgaris): --
Growth in the medium (growth inhibition) (Chlorella vulgaris): --
